Here are results for four compounds from patent publication US20220112464A1, “VASCULARIZED ORGANOID MODEL INCORPORATING ISOLATED HUMAN MICROVESSEL FRAGMENTS” (Advanced Solutions Life Sciences, LLC, priority 2020, published 2022).

In experiment [1] the test system is microvessels. Description: Microvessel growth (vessel length) under different culture media, FIG. 13. It is filed as cell-based, human. The settings on record: medium or supplement used for microvessel culture. The text has this: FIG. 13 is a graph depicting vessel length (mm) of organoids cultured under a variety of conditions (serum free+VEGF, 10% FBS, RPMI/B-27/VEGF, ADM, AMM, RPMI/B-27+IM, RMPI/B-27+Dex, RPMI/B-27+IBMX).

Experiment [2] deals with adipose-like organoids. As to the kind of experiment: Lipolysis assay (glycerol production), 3D organoids. It is filed as cell-based, human. The conditions noted are these: 1 μM isoproterenol for 4 hours, organoids with and without microvessels. As for the experimental part:
A lipolysis assay was performed on 2D (after 24 days of 2D culture) and 3D cultures (after 17 days of 2D and 7 days of 3D culture), using a commercially available kit (Sigma). Samples were treated with 1 μM isoproterenol for 4 hours. For 2D cultures, supernatants were then mixed with the reaction solution and incubated according to manufacturer's instructions. For 3D cultures, organoids were homogenized in the supernatant after isoproterenol incubation using a plastic pestle, to release glycerol trapped inside the organoid. The homogenized sample was briefly centrifuged, and supernatants were used for the remainder of the manufacturer's protocol. Samples were read at 570 nm using a plate reader (BioTek Instruments). For 2D cultures, samples cultured in FBS were used as control samples that will not undergo lipolysis. For 3D samples, negative controls were not treated with isoproterenol.

For experiment [3], the system named is adipose-like organoids. Description: TNF-α challenge with IL-6 ELISA. The settings on record: 50 ng/ml TNF-α, approximately 24 hours, organoids with and without microvessels. Format: cell-based, human. How it is done: (§1) Adipose organoids were seeded and cultured as described above. After 7 days of culture, medium was changed from AMM to AMM supplemented with or without 50 ng/ml TNF-α (Peprotech). The following day, organoids were either flash frozen for PCR analysis, fixed for histology, or used for an IL-6 enzyme-linked immunosorbent assay (ELISA).
Organoids with and without microvessels and with or without TNF-α treatment were transferred with their supernatants to micro-centrifuge tubes and briefly homogenized with a plastic pestle. Samples were diluted and centrifuged for 2 minutes at 12,000 rcf to pellet remaining matrix and cell debris. An ELISA was performed with the supernatant following manufacturer instructions (R&D systems) to measure secreted interleukin-6 (IL-6) as a marker of adipocyte inflammation and dysfunction.

Experiment [4] relates to adipose-like organoids. As to the kind of experiment: TNF-α challenge with RT-PCR of adipocyte markers. The settings on record: TNF-α treatment. It is filed as cell-based, human. As for the experimental part: as §1
RNA was extracted from either 2D cultures or 3D organoids using a Qiagen RNeasy Plus Micro kit following manufacturer's protocols. RNA was converted to cDNA with SuperScript™ IV VILO™ Master Mix (Fisher Scientific). cDNA was amplified with human primers (IDT Technologies) listed in Table 1. Primers for insulin receptor were designed using Primer3 software (NIH) and verified using BLAST database (NIH), with gene coding obtained from GenBank (NIH).
Real-time PCR was performed using a SYBER master mix (Fisher Scientific) and CFX96 Real Time System (Bio Rad). Adiponectin and PPAR-γ expression were normalized to GAPDH (IDT Technologies) and compared to either FBS treated controls (2D) or organoids without microvessels (3D). After RT-PCR, amplified cDNA was loaded into a 2% agarose gel and run at 90V. Gels were imaged for SYBER green on a gel scanner (Azure Biosystems).

For experiment [5], the system named is human microvessels. The settings on record: 50 ng/ml VEGF in serum free medium, 6 days of culture, versus no VEGF.

`CC(C)Cn1c(=O)n(C)c(=O)c2[nH]cnc21` [IBMX, 3-isobutyl-1-methylxanthine]: the microvessel growth entry in experiment [1] is “permanently impeded microvessel growth”.
As to `CC(C)NCC(O)c1ccc(O)c(O)c1` (stereo not drawn) [isoproterenol], in experiment [2], the “glycerol production in response to isoproterenol” value was “produced glycerol”.
As for TNF-α, the IL-6 secretion entry in experiment [3] is recorded as “dramatically increased IL-6 secretion”. Further, the adiponectin expression entry is listed as “small but distinct downregulation” in experiment [4] (organoids with microvessels) and “changed minimally” in experiment [4] (organoids with no microvessels).
On to “vascular endothelial growth factor [VEGF]”, for which, in experiment [5], the “vascular growth / vessel density of microvessels” value is reported as “significantly increased vascular growth”.
